Common to all, as to format: biochemical
Test [1] has as its target T1, NANOLUC® Luciferase (Oplophorus gracilirostris, UniProt Q9GV45, A31E/A60N/A81I/F95D/I117V/K70R/L54V/L99Q/M102K/N193R/P142E/Q151K/Q38R/Q45L/V71I/Y165I). Description: Luminescence assay with purified NANOLUC luciferase (Example 7). The following applies: bioluminescence with NANOLUC luciferase. The protocol: Each compound to be screened was dissolved in DMSO (5 mM) and then further diluted to 100 uM in NANO-GLO® Luciferase Assay Buffer. Each diluted substrate was then combined in equal volumes with purified NANOLUC® Luciferase diluted into CO2 independent media+10% FBS. Initial light output for each substrate was measured in a GLOMAXI-Multi+luminometer three minutes after substrate addition and then at five minute intervals as a means to determine signal half-life.
The synthesized coelenterazine analogues (compounds of formula (I) and (II)) were evaluated for their suitability as luciferase substrates. NANOLUC® luciferase was employed for the screening because it is a small (19 kDa), stable, and particularly bright enzyme.

Test [2] deals with T1, NANOLUC® Luciferase. Briefly: Spectral measurements in various buffers with NANOLUC luciferase (Example 10). The following applies: for shift of the NanoLuc luciferase spectral properties: FIGS. 3A-3C and 4A-4D; for NanoGlo (spectral peak, Table 4) / OptiMEM (spectral peak, Table 4) / High / Low / Peak / Width: NanoLuc; for NanoGlo (spectral peak, Table 4): NanoGlo buffer; for High / Low / Peak / Width: emission spectrum. As to the method: (§1) Each compound to be screened was diluted to a concentration of 100 uM (50 uM final concentration) in Renilla Glo Luciferase Assay buffer (Promega Corporation), NANO-GLO Luciferase Assay Buffer (Promega Corporation), or 20 uM (10 uM final) in OptiMEM+0.1% FBS. NANOLUC® luciferase and Renilla luciferase were serially diluted to 4, 40, and 400 ng/ml in OptiMEM+0.1% FBS. 50 ul of each compound dilution was mixed with 50 ul enzyme dilution and incubated for 1 minute at room temperature. Autoluminescence spectra of AS-353 was measured by adding 20 uM of substrate to OptiMEM+20% FBS and then 50 ul of this dilution was combined with 50 ul of OptiMEM+0.1% FBS. Spectral measurements were measured using a Tecan M-1000 luminometer. ([…]).

Test [3] addresses T1, NANOLUC® Luciferase. Briefly: Km and Vmax substrate titration with NanoLuc luciferase (Example 8). The following applies: for light produced by NanoLuc luciferase compared to Renilla: FIGS. 1A-1D. The protocol:
(§2) Each compound to be screened was diluted to a concentration of 100 uM in Renilla Glo Luciferase Assay buffer (Promega Corporation) and then further diluted to 2×serial dilution in Renilla Glo Luciferase Assay Buffer. NANOLUC® luciferase and Renilla luciferase were diluted to a concentration of 4 ng/ml in OptiMEM+0.1% FBS. 50 ul of each compound dilution was then mixed with 50 ul of each enzyme dilution and incubated for 1 minute at room temperature. Light output for each compound was measured on a GLOMAX®-Multi+ luminometer. Km and Vmax were calculated for each enzyme/substrate combination using a GraphPad Prism Michaelis-Menten non-linear fit (FIGS. 1A-ID).

In test [4] the target is T2, Renilla luciferase (Renilla reniformis, UniProt P27652).
T2 sequence (P27652 1-311): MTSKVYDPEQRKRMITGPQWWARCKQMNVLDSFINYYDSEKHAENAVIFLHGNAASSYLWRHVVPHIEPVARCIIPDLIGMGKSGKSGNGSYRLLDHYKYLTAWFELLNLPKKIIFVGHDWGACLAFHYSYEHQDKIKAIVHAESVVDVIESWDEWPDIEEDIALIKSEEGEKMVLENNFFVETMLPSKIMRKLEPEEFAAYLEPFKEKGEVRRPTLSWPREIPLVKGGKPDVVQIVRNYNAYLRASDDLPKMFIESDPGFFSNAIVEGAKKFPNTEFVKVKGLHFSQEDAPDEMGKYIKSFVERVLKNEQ
Description: Km and Vmax substrate titration with Renilla luciferase (Example 8). As to the method: as §2

Test [5] deals with T2, Renilla luciferase. Description: Spectral measurements in various buffers with Renilla luciferase (Example 10). The following applies: for RenillaGlo (spectral peak, Table 4): RenillaGlo buffer; for High / Low / Peak / Width: emission spectrum. Set-up: Low / High / Width: unit not given here. The protocol: as §1
The mark [6] stands for this setting: NanoLuc 4 ng/ml, Renilla Glo buffer, Michaelis-Menten fit.
Setting [7] is: Renilla luciferase 4 ng/ml, Renilla Glo buffer, Michaelis-Menten fit.

T1 sequence (Q9GV45 28-196 with tags or gaps with the stated changes limits assumed): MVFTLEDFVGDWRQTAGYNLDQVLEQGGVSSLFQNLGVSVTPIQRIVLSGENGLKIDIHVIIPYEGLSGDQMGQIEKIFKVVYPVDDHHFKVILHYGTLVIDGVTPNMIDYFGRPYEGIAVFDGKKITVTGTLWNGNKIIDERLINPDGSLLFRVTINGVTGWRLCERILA

Consider `O=c1c(Cc2ccco2)nc2c(-c3ccccc3)[nH]c(-c3ccccc3)cn1-2` [AS-174, 2-(furan-2-ylmethyl)-6,8-diphenylimidazo[1,2-a]pyrazin-3(7H)-one], for which, at NANOLUC® Luciferase [1], the “λmax, nm” value is recorded as 496 nm. On NANOLUC® Luciferase [2], the “shift of the NanoLuc luciferase spectral properties” value (“shift” for short) is recorded as “shifted the NanoLuc® luciferase spectral properties to red”; the “NanoGlo (spectral peak, Table 4)” value was 493; the “OptiMEM (spectral peak, Table 4)” value was 490. At NANOLUC® Luciferase [2] (NanoGlo Buffer), this compound registered a High of 541, a Low of 460, a Peak of 493 and a Width of 81. Moreover, on NANOLUC® Luciferase [2] (OptiMEM + 0.1% FBS), the High is reported as 535, the Low came out at 460, the Peak turned out to be 490 and the Width is listed as 75.

On to `N#Cc1ccc(-c2[nH]c(-c3ccccc3)cn3c(=O)c(Cc4ccco4)nc2-3)s1` [AS-262, 5-(2-(furan-2-ylmethyl)-3-oxo-6-phenyl-3,7-dihydroimidazo[1,2-a]pyrazin-8-yl)thiophene-2-carbonitrile], for which the “λmax, nm” value at NANOLUC® Luciferase [1] came to 574 nm. In addition, at NANOLUC® Luciferase [2], the “shift” value was “shifted the NanoLuc® luciferase spectral properties to red”; the “NanoGlo (spectral peak, Table 4)” value is listed as 577; the “OptiMEM (spectral peak, Table 4)” value is reported as 574. At NANOLUC® Luciferase [2] (NanoGlo Buffer), this compound yielded a High of 634, a Low of 535, a Peak of 577 and a Width of 99. Also, on NANOLUC® Luciferase [2] (OptiMEM + 0.1% FBS), the High was 625, the Low was determined as 532, the Peak turned out to be 574 and the Width is 93.

`O=c1c(Cc2ccco2)nc2c(-c3ccnc4ccccc34)[nH]c(-c3ccccc3)cn1-2` [AS-310, 2-(furan-2-ylmethyl)-6-phenyl-8-(quinolin-4-yl)imidazo[1,2-a]pyrazin-3(7H)-one]: the “λmax, nm” value on NANOLUC® Luciferase [1] came to 571 nm. Further, at NANOLUC® Luciferase [2], the “shift” value was “shifted the NanoLuc® luciferase spectral properties to red”; the “NanoGlo (spectral peak, Table 4)” value worked out at 574; the “OptiMEM (spectral peak, Table 4)” value came to 571. On NANOLUC® Luciferase [2] (NanoGlo Buffer), this compound gave a High of 631, a Low of 526, a Peak of 574 and a Width of 105. Also, on NANOLUC® Luciferase [2] (OptiMEM + 0.1% FBS), the High came to 631, the Low was determined as 520, the Peak was determined as 571 and the Width was determined as 111.

Consider `Oc1ccc(-c2cn3c(O)c(Cc4ccccc4)nc3c(Cc3ccccc3)n2)cc1` [Coelenterazine-H], for which, at NANOLUC® Luciferase [3], the “light produced by NanoLuc luciferase compared to Renilla” value is on record as “significantly more light than Renilla”. Further, the Vmax on NANOLUC® Luciferase [3] (setting [6]) was 19,790,000. Also, the Michaelis constant (Km) at NANOLUC® Luciferase [3] (NanoLuc 4 ng/ml, Renilla Glo buffer, Michaelis-Menten fit, read-out: Km) was 36.4 µM. The “more light with Renilla luciferase compared to Furimazine” value on Renilla luciferase [4] (FIGS. 1A-1D) is reported as ~7 ×. In addition, on Renilla luciferase [4] (setting [7]), the Michaelis constant (Km) turned out to be 3.26 µM and the Vmax was 64,494. Moreover, at Renilla luciferase [5] (Renilla), the “OptiMEM (spectral peak, Table 4)” value is listed as 487 and the “RenillaGlo (spectral peak, Table 4)” value was determined as 490. At Renilla luciferase [5] (Renilla/RenillaGlo), this compound showed a High of 541, a Low of 454, a Peak of 490 and a Width of 87. For the same compound, on Renilla luciferase [5] (Renilla, OptiMEM + 0.1% FBS), the High is given as 535, the Low was 451, the Peak was 487 and the Width is reported as 84. Besides, on NANOLUC® Luciferase [2], the “NanoGlo (spectral peak, Table 4)” value was found to be 466 and the “OptiMEM (spectral peak, Table 4)” value is reported as 460. On NANOLUC® Luciferase [2] (NanoGlo Buffer), this compound had a High of 508, a Low of 433, a Peak of 466 and a Width of 75. For the same compound, on NANOLUC® Luciferase [2] (OptiMEM + 0.1% FBS), the High came out at 502, the Low worked out at 433, the Peak is reported as 460 and the Width is listed as 69.

As for `O=c1c(Cc2ccco2)nc2c(Cc3ccccc3)[nH]c(-c3ccccc3)cn1-2` [Furimazine, 8-benzyl-2-(furan-2-ylmethyl)-6-phenylimidazo[1,2-a]pyrazin-3(7H)-one], at NANOLUC® Luciferase [3], the “light produced by NanoLuc luciferase compared to Renilla” value is on record as “significantly more light than Renilla”. The Vmax on NANOLUC® Luciferase [3] (setting [6]) is on record as 33,470,000. Further, the Vmax at Renilla luciferase [4] (setting [7]) is listed as 8,910. At Renilla luciferase [5] (Renilla), the “OptiMEM (spectral peak, Table 4)” value stood at 430 and the “RenillaGlo (spectral peak, Table 4)” value amounted to 436. At Renilla luciferase [5] (Renilla/RenillaGlo), this compound displayed a High of 490, a Low of 403, a Peak of 436 and a Width of 87. At Renilla luciferase [5] (Renilla, OptiMEM + 0.1% FBS), the High was determined as 472, the Low turned out to be 403, the Peak is listed as 430 and the Width came out at 69. The “λmax, nm” value on NANOLUC® Luciferase [1] came to 460 nm. Moreover, at NANOLUC® Luciferase [2], the “NanoGlo (spectral peak, Table 4)” value stood at 463 and the “OptiMEM (spectral peak, Table 4)” value was 463. At NANOLUC® Luciferase [2] (NanoGlo Buffer), this compound came in with a High of 520, a Low of 433, a Peak of 463 and a Width of 87. Besides, on NANOLUC® Luciferase [2] (OptiMEM + 0.1% FBS), the High is given as 499, the Low turned out to be 430, the Peak is given as 463 and the Width was determined as 69.

As to `Nc1ccc(-c2cn3c(=O)c(Cc4ccco4)nc-3c(Cc3ccccc3)[nH]2)cc1` [JRW-0445, 6-(4-aminophenyl)-8-benzyl-2-(furan-2-ylmethyl)imidazo[1,2-a]pyrazin-3(7H)-one], on NANOLUC® Luciferase [1], the “λmax, nm” value is 502 nm.

With `Nc1ccccc1-c1cn2c(=O)c(Cc3ccco3)nc-2c(Cc2ccccc2)[nH]1` [JRW-0446, 6-(2-aminophenyl)-8-benzyl-2-(furan-2-ylmethyl)imidazo[1,2-a]pyrazin-3(7H)-one], the “λmax, nm” value on NANOLUC® Luciferase [1] was found to be 487 nm.
